# From patent US11117888B2, “Irreversible inhibitors of pyruvate kinase M2 and the use thereof” (China Medical University, priority 2020, dated 2021)
# Tests used:
# [1] = test system: PC-9 cells; assay: Seahorse Glycolysis Stress assay (ECAR and OCR); assay type: cell-based, human
# From the text: In light of the role of PKM2 in promoting glycolysis, we hypothesized that the antitumor activity of compound 1 might, in part, be attributable to its ability to reverse the glycolytic phenotype (i.e., Warburg effect) of cancer cells. Accordingly, we examined the effects of compound 1 on the extracellular acidification rate (ECAR) and cellular oxygen consumption rate (OCR) in PC-9 cells, which represent key bioenergetic parameters of glycolysis (lactate production) and mitochondrial respiration (oxidative phosphorylation), respectively, using a commercial kit (Agilent Seahorse XF Glycolysis Stress Test Kit). In the ECAR measurement, glucose, oligomycin (an ATP synthetase inhibitor), and 2-deoxyglucose (2-DG; a hexokinase/glycolysis inhibitor) were added in tandem to glucose-starved cells at different time intervals to activate or interfere with glycolysis, thereby allowing the calculation of the glycolytic flux and glycolytic capacity. […] Meanwhile, the OCR response, a parameter for oxidative phosphorylation, was concurrently monitored. […] It is noteworthy that when glucose was added to the basal medium, there was a decrease in the OCR in the control group. This phenomenon was previously referred to as the “Crabtree effect”, i.e., when glucose is added to activate glycolysis, it might be more favorable for cells to generate ATP through substrate-level phosphorylation, thereby reducing the need of oxidative phosphorylation. However, this glucose-induced drop in OCR became less apparent in the presence of compound 1, which might be associated with the ability of compound 1 to block glycolysis.
# Glycolysis Stress assay. Extracellular acidification rate (ECAR) and oxygen consumption rate (OCR) were measured using a Seahorse Bioscience XF96 extracellular flux analyzer (Seahorse Bioscience) according to the manufacturer's protocol. PC-9 ells (5×10^4) were seeded in 96 Seahorse XF Cell Culture Microplate with normal growth medium 24 hours before treatment with compounds. The cells were treated with DMSO or compound 1 for 4 hours at 37° C. under 5% CO2 atmosphere. […]
# [2] = test system: 246 different kinases (activity) and 143 different kinases (substrate binding); assay: Kinase profiling analysis (Life Technologies' SelectScreen Profiling Service); assay type: biochemical; settings: 500 nM; activity of 246 kinases, substrate binding to 143 kinases
# Protocol: To shed light onto its potential target, compound 1 was submitted to a commercial vendor for kinase profiling analysis (Life Technologies' SelectScreen Profiling Service), in which the inhibitory effects of compound 1 at 500 nM on the activity of 246 different kinases as well as substrate binding to 143 different kinases were tested.
# [3] = test system: PC-9 xenograft tumors; assay: PC-9 xenograft tumor model in nude mice; assay type: in vivo; settings: 10 mg/kg once daily i.p., 25 days
# Protocol: Pursuant to the above in vitro findings, we evaluated the in vivo tumor-suppressive efficacy of compound 1 in an ectopic PC-9 xenograft tumor model. Athymic nude mice bearing established subcutaneous PC-9 tumors were randomly divided into two groups (n=8 for each group; initial tumor volume: vehicle, 50±11 mm^3; compound 1, 53±6 mm^3), and were treated once daily with compound 1 at 10 mg/kg or vehicle via intraperitoneal injection.
# In vivo efficacy study. Athymic nude mice were purchased from the National Laboratory Animal Center (Taipei, Taiwan). To assess the effect of compound 1 on tumor growth in vivo, 1×10^6 PC-9 cells were mixed with Matrigel (BD Biosciences) at a 1:1 ratio and subcutaneously implanted into nude mice (6-week-old, female; a total of 16 mice). After 7 days, mice were treated with once daily vehicle or 10 mg/kg compound 1 in sterile water containing 0.5% methylcellulose (w/v)+0.1% Tween-80 (v/v) (n=8 for each group). Tumors were measured with calipers and volumes were calculated using V=(width^2×length)×0.52. On day 25, tumors were excised and weighed. Tumor specimens were collected, and expression of target proteins in tumor lysates were analyzed by Western blotting, which were quantified by ImageJ. according to a published online procedure. (https://openwetware.org/wiki/Protein_Quantification_Using_ImageJ).
# [4] = molecular target: PKM2 (Homo sapiens, UniProt P14618); assay: Recombinant PKM2 kinase activity assay; assay type: biochemical; set-up: purchased Sigma-Aldrich SAE0021; settings: after 20 min of exposure
# PKM2, sequence (P14618 whole entry): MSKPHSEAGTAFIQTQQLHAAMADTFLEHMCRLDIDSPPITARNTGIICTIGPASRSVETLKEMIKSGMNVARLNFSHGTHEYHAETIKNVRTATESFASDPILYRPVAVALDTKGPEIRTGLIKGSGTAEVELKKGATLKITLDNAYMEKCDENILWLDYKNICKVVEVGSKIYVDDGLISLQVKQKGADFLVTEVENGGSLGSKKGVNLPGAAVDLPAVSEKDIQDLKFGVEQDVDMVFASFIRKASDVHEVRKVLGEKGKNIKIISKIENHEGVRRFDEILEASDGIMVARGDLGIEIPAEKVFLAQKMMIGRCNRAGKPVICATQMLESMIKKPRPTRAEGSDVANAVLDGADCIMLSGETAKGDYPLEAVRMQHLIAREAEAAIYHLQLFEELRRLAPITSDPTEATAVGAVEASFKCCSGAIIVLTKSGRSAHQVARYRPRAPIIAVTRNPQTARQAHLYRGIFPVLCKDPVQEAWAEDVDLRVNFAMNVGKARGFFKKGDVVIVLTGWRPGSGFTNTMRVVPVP
# Protocol: As this cell-based kinase assay could not rule out the involvement of PKM1, we examined the abilities of compound 1 to inhibit the kinase activity of recombinant PKM2 (SAE0021, Sigma-Aldrich) versus recombinant PKM1 (SRP0415, Sigma-Aldrich) using a commercial PKM assay kit. […] In brief, PC-9 cells were exposed to different concentrations of compound 2 in the presence of compound 1 (1 μM) for 1 hour, lysed, and the cell lysates were treated with biotin-azide, followed by streptavidin bead pulldown under the aforementioned conditions. […] The antigen of compound 1 was prepared by coupling this small molecule with cysteine residues of ovalbumin, which was then used for immunization in guinea pigs.
# Pyruvate kinase activity assays. PC-9 cells were seeded into 6 cm dishes at a concentration of 5×10^5 cells/mL. After 24 hours, cells were treated with 0.25 μM compound 1 or DMSO for 6 hours. The pyruvate kinase activity of compound 1-treated PC-9 and vehicle control cells was measured by using a commercial colorimetric assay kit from BioVision (Milpitas, Calif., USA) according to the manufacturer's protocol. In addition, to verify the specificity of compound 1 toward PKM2 versus PKM1, the inhibition of the kinase activity of recombinant PKM1 (SRP0415, Sigma-Aldrich) and recombinant PKM2 (SAE0021, Sigma-Aldrich) by compound 1 was conducted using the aforementioned assay kit.
smiles,measurement,setting,value
"C#CC(=O)Nc1ccc(-n2nc(CCC(=O)NC)cc2-c2ccc(-c3ccc(C(F)(F)F)cc3)cc2)cc1 [compound 1, N-(4-(3-(3-(Methylamino)-3-oxopropyl)-5-(4′-(trifluoromethyl)-[1,1′-biphenyl]-4-yl)-1H-pyrazol-1-yl)phenyl)propiolamide]",glycolytic acidification (ECAR),"[1]; 0.25-1 μM, 4 hours",suppressed the glycolytic acidification in a concentration-dependent manner
same,non-glycolytic acidification (ECAR),"[1]; 0.25-1 μM, 4 hours",no appreciable effect
same,"oxygen consumption rate (OCR), basal state","[1]; prior to glucose supplementation, relative to DMSO",increase oxygen consumption in the basal state
same,inhibition of kinases in profiling panel,[2],none of the kinases examined was effectively inhibited
same,expression of PKM2 and binding partners in tumor lysates,[3]; Western blot,"significant suppression of the expression of PKM2 and its binding partners EGFR, Stat3, and β-catenin"
same,body weight loss,[3]; relative to control,No appreciable weight loss
same,tumor growth (tumor volume and tumor weight),[3]; relative to vehicle,significantly suppressed tumor growth
same,inhibition of kinase activity of recombinant PKM2,[4],suppress the kinase activity of PKM2
